# Results: patent US6515022B2, “Use of inhaled retinoids in the treatment of lung diseases” (Sloan-Kettering Institute for Cancer Research, priority 1996, dated 2003)
# Read-outs that look alike come from different tables or passages of the source.
# How the values were obtained:
# [1] = Tissue/plasma concentrations after intra-tracheal instillation (HPLC); assay type: in vivo, Sprague-Dawley rats; settings: Sprague-Dawley, other: intra-tracheal instillation, rat, 100 μg intra-tracheal instillation
# Protocol: To evaluate the bioavailability of retinoids delivered by inhalation, 100 μl of an aqueous solution containing 100 μg of all-trans retinoic acid was administered via intra-tracheal instillation to 3 Sprague-Dawley rats, each weighing approximately 200 g. One rat was then sacrificed at three time points: 1, 6 and 24 hours after treatment. At the time of sacrifice, the chest cavity was opened, both lungs and trachea were removed en bloc, and the right and left lungs were separated by dissection. The liver was also removed, along with a sample of blood obtained by cardiac puncture. The blood sample was separated by centrifugation, and plasma plus each of the aforementioned tissues were frozen for later analysis. Subsequently, the tissue was homogenized, and the homogenized tissue and plasma were extracted with ethanol.
# physchem [2] = settings: organic solvent or mixture, thermodynamic from solid
# Protocol: Maximum solubility was determined by weighing the residue remaining after evaporation of the solvent.
# [3] = Histologic examination of lungs and trachea after single-dose administration; settings: rat
# Protocol: Animals were sacrificed at 5 minutes and at 1, 2, 4 and 6 hours, and blood and liver and lung tissue were harvested for analysis by high performance liquid chromatography (HPLC) and histology. In addition, animals receiving the inhalant were sacrificed at 24 hours post-treatment.
# [4] = Attempts at aqueous solutions (MOLECUSOL, ammonium salt); assay type: physicochemical; settings: solutions containing 45% MOLECUSOL (modified beta cyclodextrin)
# Description: Next, because of a report that the solubility of retinol (vitamin A) in water could be increased by addition of modified beta cyclodextrin (MOLECUSOL®), we next tried to prepare aqueous solutions of all-trans retinoic acid using MOLECUSOL® to enhance the solubility. […] Similarly, efforts to solubilize all-trans retinoic acid in aqueous solution using phosphatidylcholine and phosphatidylethanolamine produced a viscous colloid which was unsuited for aerosol administration.
# We next tried to use salts of the retinoids to obtain a water-soluble product for aerosol generation. When all-trans retinoic acid is treated with ammonium hydroxide, a water-soluble ammonium salt is obtained. The pH of solutions of this salt is too high (pH >10), however, for direct administration as an aerosol. Neutralization of the solution after dissolution of the retinoid led to the formation of a precipitate, both in the presence and absence of added beta cyclodextrin.
# physchem [5] = settings: HCFC-123 without alkylamine, organic solvent or mixture
# in vivo = settings: rat
# Protocol: The biodistribution and pharmacokinetics of an inhaled formulation of all-trans retinoic acid were compared to both intra-tracheal and intravenous administration. Anesthetized (i.p. pentobarbitol 50 mg/kg) male Sprague-Dawley rats weighing 300 to 700 grams were treated by administration of all-trans retinoic acid by inhalation, iv injection or intra-tracheal injection. Inhaled and intra-tracheal injections were given through an endotracheal tube placed under direct vision over a guidewire as described by Weksler et al., J. Appl. Physiol. 76: 1823-1825 (1994). IV doses were given by catheter injection via the right external jugular vein.
# For inhalation, all-trans retinoic acid was solublized in hydrofluorocarbon 123 using tetramethylamunonium hydroxide to a concentration of 5 mg/ml, and combined with hydrofluoroalkane 134a as propellant, for a final concentration of 1.5 mg per 1.475 grams of propellant solution. […] An identical inhaler containing propellant mixture without drug was used as a control. […] This procedure was also repeated with an angiocatheter fitted to the apparatus. The catheter was subsequently rinsed with 10 ml of isopropanol, which was also collected. The three solutions were then assayed for all-trans retinoic acid concentrations in order to determine the amount of drug delivered through the apparatus, as well as any residual drug that was bound to the angiocatheter. We defined the area under the concentration times-time curve (AUC) for animals who received intra-tracheal all-trans retinoic acid as 100% effective dose delivery to the lung.
# For injection, an aqueous solution of all-trans retinoic acid was prepared in 20% ethanol, 10% Tween 20 and 1 mM NH4OH, for a final concentration of […] all-trans retinoic acid per ml of solution. A mixture of 20% ethanol and 10% Tween 20 served as a control.
# Animals were grouped into three experimental groups and two control groups. The control groups received no treatment or a control inhalant containing no all-trans retinoic acid. Animals in the groups receiving iv or intra-tracheal injections each received a single dose containing 250 μg all-trans retinoic acid. Animals in the group treated with the multidose inhaler each received three doses for a total of 147 μg of all-trans retinoic acid.
# [6] = Solubility in chlorofluorocarbons with alkylamine solubilizers
# [7] = left lung, read-out: Left Lung concentration
# [8] = liver, read-out: Liver concentration
# [9] = plasma, read-out: Plasma concentration
# [10] = right lung, read-out: Right Lung concentration
# [11] = trachea, read-out: Trachea concentration
# [12] = male, Sprague-Dawley, inhaled or intranasal, 147 ug
# [13] = male, Sprague-Dawley, iv, 250 ug
smiles,measurement,setting,value
CC1=C(/C=C/C(C)=C/C=C/C(C)=C/C(=O)O)C(C)(C)CCC1 [all-trans retinoic acid],concentration at 1 hour,[1]; [7],928 ng/g
same,concentration at 6 hours,[1]; [7],56 ng/g
same,concentration at 24 hours,[1]; [7],22 ng/g
same,concentration at 1 hour,[1]; [8],233 ng/g
same,concentration at 6 hours,[1]; [8],24 ng/g
same,concentration at 24 hours,[1]; [8],23 ng/g
same,concentration at 1 hour,[1]; [9],0.123 µg/mL
same,concentration at 24 hours,[1]; [9],0.178 µg/mL
same,concentration at 1 hour,[1]; [10],773 ng/g
same,concentration at 6 hours,[1]; [10],91 ng/g
same,concentration at 24 hours,[1]; [10],21 ng/g
same,concentration at 1 hour,[1]; [11],2860 ng/g
same,concentration at 6 hours,[1]; [11],96 ng/g
same,concentration at 24 hours,[1]; [11],30 ng/g
same,solubility,physchem [2]; ethyl acetate,10 mg/mL
same,solubility,physchem [2]; methylene chloride,5 mg/mL
same,Histologic examination of lungs and traches,[3],no focal irritation attributable to the drug
same,Solubility in aqueous solution,[4],enhance the solubility of the all-trans retinoic acid to a useful level
same,solubility,physchem [5],~2 mg/mL
same,"Lung AUC, intra-tracheal route relative to aerosolized route","in vivo; male, Sprague-Dawley",100 times
same,concentration at 1 hour,"in vivo; male, Sprague-Dawley",0.068 ± 0.044 µg/mL
same,AUC,"in vivo; male, Sprague-Dawley, 250 ug",0.191 µg·h/mL
same,Liver AUC,"in vivo; male, Sprague-Dawley, 250 ug",2532 ng-hr/gm
same,Lung AUC,"in vivo; male, Sprague-Dawley, 250 ug",26972 ng-hr/gm
same,half-life,"in vivo; male, Sprague-Dawley, 250 ug, Liver T½",22 h
same,half-life,"in vivo; male, Sprague-Dawley, 250 ug, Lung T½",17.7 h
same,half-life,"in vivo; male, Sprague-Dawley, 250 ug, Plasma T½",1.9 h
same,AUC,in vivo; [12],0.171 µg·h/mL
same,Liver AUC,in vivo; [12],2307 ng-hr/gm
same,Lung AUC,in vivo; [12],262 ng-hr/gm
same,half-life,"in vivo; male, Sprague-Dawley, inhaled or intranasal, 147 ug, Lung T½",5.4 h
same,half-life,"in vivo; male, Sprague-Dawley, inhaled or intranasal, 147 ug, Plasma T½",3 h
same,Total absorption (percent effective dose: inhaled AUC / intra-tracheal AUC),"in vivo; male, Sprague-Dawley, inhaled or intranasal, 250 ug",1-2%
same,AUC,in vivo; [13],1.39 µg·h/mL
same,Liver AUC,in vivo; [13],4724 ng-hr/gm
same,Liver T½,in vivo; [13],0.8 h
same,Lung AUC,in vivo; [13],11910 ng-hr/gm
same,half-life,"in vivo; male, Sprague-Dawley, iv, 250 ug, Liver T½",1 h
same,half-life,"in vivo; male, Sprague-Dawley, iv, 250 ug, Lung T½",1.9 h
same,"Lung AUC, intra-tracheal route relative to iv route",in vivo,twice
same,Maximum Solubility,"[6]; HCFC-123, alkylamine 1.44 mg/ml",˜17 mg/ml
same,Maximum Solubility,"[6]; HCFC-123, alkylamine 7.22 mg/ml",˜44 mg/ml
